Values quoted from earlier work, collected in US20220265670A1, “COMPOSITION AND USE THEREOF FOR THE TREATMENT OF CUTANEOUS MASTOCYTOSIS” (AC BIOSCIENCE SA, priority 2019, published 2022).

Tests used:
c-Kit = c-Kit (Homo sapiens, UniProt P10721)
PDGF-R = conditions: cellular level; read-out: IC50, PDGF-R-dependent cell proliferation
[1] = test system: JM-mutated (exon 11) c-Kit; conditions: cellular level; read-out: IC50, JM-mutated (exon 11) c-Kit-dependent cell proliferation
mast degranulation = conditions: low masitinib concentrations

Chain of c-Kit (P10721 26-976): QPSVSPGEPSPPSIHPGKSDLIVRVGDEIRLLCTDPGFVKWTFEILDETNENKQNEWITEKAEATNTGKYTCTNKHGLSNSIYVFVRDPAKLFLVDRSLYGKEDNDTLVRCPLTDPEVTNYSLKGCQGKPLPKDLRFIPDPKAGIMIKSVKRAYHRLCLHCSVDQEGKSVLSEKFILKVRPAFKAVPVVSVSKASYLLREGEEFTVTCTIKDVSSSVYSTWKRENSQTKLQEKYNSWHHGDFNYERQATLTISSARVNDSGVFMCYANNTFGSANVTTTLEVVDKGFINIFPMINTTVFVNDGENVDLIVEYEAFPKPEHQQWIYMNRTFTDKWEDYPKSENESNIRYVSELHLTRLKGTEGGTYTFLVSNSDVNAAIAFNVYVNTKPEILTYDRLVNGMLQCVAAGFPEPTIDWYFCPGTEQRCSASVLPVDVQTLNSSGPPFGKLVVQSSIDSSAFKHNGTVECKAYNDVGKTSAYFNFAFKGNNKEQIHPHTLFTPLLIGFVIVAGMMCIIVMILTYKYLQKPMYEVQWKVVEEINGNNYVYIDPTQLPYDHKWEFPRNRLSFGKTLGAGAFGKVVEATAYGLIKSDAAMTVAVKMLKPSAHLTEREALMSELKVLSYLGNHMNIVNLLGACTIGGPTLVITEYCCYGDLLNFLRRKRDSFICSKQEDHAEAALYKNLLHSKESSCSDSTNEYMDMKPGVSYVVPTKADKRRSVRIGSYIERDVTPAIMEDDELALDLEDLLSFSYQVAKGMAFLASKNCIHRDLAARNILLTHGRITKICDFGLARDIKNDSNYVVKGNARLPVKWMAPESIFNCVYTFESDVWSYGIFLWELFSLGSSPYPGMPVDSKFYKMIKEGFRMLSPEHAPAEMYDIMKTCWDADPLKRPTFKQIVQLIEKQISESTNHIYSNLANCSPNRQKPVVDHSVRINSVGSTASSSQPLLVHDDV

Cc1ccc(NC(=O)c2ccc(CN3CCNCC3)cc2)cc1Nc1nc(-c2cccnc2)cs1 [AB3280]
inhibitory profile relative to masitinib (c-Kit): essentially the same inhibitory profile as masitinib, even though slightly less potent than masitinib

Cc1ccc(NC(=O)c2ccc(CN3CCN(C)CC3)cc2)cc1Nc1nc(-c2cccnc2)cs1 [Masitinib]
IC50 [1]: 5 nM
inhibition of mast degranulation (mast degranulation): significant inhibition of mast degranulation
